Data on one compound can be found in ChEMBL document CHEMBL5365447, “Pronucleotides of 2',3'-Dideoxy-2',3'-Didehydrothymidine as Potent Anti-HIV Compounds” (J Med Chem, 2023).

Calls of active or inactive are those of the source. The rule behind the calls is not given here.

For series [1], the target named is DNA polymerase beta (Homo sapiens) (UniProt P06746). Nature of the series: Substrate activity at human DNA polymerase beta measured after 4 hrs by electrophoresis based primer extension assay.
For series [2], the system named is Human immunodeficiency virus 2. Briefly: Potency index, ratio of 3'-deoxy-2',3'-dehydrothymidine EC50 to compound EC50 for antiviral activity against HIV-2 ROD infected in wild-type human CEM/0 cells. It counts as functional.
Series [3] has as its system Human immunodeficiency virus 2. Nature of the series: Antiviral activity against HIV-2 ROD infected in thymidine kinase-deficient human CEM cells assessed as inhibition of virus-induced cytopathic effect incubated for 4 to 5 days by light microscopic analysis. It counts as functional, organism-based. The conditions noted are these: Human immunodeficiency virus 2, ROD, CCRF-CEM.

The nature of series [4]: Prodrug conversion in human CEM/0 cell extract assessed as ((2S,5R)-5-(5-methyl-2,4-dioxo-3,4-dihydropyrimidin-1(2H)-yl)-2,5-dihydrofuran-2-yl)methyl tri-hydrogen diphosphate formation by HPLC analysis. It counts as ADME. As to conditions: ccrf-cem.
Series [5] deals with T1, DNA polymerase alpha catalytic subunit (Homo sapiens) (UniProt P09884).
T1 sequence (whole entry): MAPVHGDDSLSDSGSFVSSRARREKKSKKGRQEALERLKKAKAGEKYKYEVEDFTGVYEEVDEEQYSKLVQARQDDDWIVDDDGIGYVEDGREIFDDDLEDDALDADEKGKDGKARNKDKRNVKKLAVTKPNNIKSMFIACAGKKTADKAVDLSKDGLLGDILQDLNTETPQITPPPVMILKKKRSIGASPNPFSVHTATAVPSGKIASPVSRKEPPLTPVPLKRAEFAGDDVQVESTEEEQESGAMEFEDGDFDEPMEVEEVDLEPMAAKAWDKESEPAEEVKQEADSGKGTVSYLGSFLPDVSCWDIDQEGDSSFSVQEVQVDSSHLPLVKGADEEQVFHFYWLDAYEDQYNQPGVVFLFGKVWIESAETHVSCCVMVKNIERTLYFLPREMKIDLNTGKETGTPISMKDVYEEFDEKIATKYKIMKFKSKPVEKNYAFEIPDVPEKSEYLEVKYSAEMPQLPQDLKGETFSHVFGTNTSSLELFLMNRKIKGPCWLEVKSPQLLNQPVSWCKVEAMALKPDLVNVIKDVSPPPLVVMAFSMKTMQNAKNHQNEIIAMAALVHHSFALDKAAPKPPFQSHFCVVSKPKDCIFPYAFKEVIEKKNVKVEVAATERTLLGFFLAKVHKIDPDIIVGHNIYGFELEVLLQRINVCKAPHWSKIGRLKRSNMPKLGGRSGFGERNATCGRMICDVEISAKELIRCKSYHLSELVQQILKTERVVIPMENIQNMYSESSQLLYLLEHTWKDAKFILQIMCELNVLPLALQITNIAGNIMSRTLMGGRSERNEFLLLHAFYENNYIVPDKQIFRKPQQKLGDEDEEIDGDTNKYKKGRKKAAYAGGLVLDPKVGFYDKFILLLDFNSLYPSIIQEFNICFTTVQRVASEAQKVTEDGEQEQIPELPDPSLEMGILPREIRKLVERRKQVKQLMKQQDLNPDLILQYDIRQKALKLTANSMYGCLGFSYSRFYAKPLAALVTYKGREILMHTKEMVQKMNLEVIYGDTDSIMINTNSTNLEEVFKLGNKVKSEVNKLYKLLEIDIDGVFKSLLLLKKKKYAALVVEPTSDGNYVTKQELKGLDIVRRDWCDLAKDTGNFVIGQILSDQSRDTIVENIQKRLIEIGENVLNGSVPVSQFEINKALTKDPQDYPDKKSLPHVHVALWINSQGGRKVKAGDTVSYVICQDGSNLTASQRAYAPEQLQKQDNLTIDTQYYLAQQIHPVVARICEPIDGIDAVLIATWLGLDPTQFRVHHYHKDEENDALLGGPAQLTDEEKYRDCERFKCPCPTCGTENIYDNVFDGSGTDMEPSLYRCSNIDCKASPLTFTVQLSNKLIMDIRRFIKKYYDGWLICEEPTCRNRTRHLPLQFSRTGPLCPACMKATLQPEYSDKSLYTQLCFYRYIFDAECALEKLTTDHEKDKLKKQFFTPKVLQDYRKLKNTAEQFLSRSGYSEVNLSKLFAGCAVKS
Briefly: Substrate activity at human DNA polymerase alpha measured after 4 hrs by electrophoresis based primer extension assay.

By EC50 is commonly meant the concentration giving half of the maximal effect. Consider `CCCCCCCCCCCCCCCCCCP(=O)(OC)OP(=O)(O)OP(=O)(O)OC[C@@H]1C=C[C@H](n2cc(C)c(=O)[nH]c2=O)O1.N.N` (stereo not given in full), for which the result in series [1] and in series [5] was inactive. The “Ratio EC50” value in series [2] was determined as 4. Also, in series [3], the concentration giving a half-maximal response (EC50) was found to be 480 nM. In addition, in series [4], the Drug metabolism entry is recorded as “Metabolite_Detected”.
